{
  "source": "paper PMC12199414",
  "about": "“A Self‐Assembling LYTAC Mediates CTGF Degradation and Remodels Inflammatory Tumor Microenvironment for Triple‐Negative Breast Cancer Therapy” (Advanced Science, 2025)",
  "molecules": {"B1": {"name": "CL8 peptide (peptide)", "chain": "CPSAAHYL", "modifications": "not checked"}, "B2": {"name": "CL8‐M6P3 (peptide)", "chain": "CPSAAHYL", "modifications": "not fully specified (C-terminus)"}},
  "key": {"[1]": {"tested_on": "red blood cells", "assay": "Hemolysis assay", "format": "cell-based, mice", "conditions": "mouse erythrocytes, 0-30 × 10^−6 M, 1 h, 37 °C, absorbance 570 nm", "experimental": "The hemolytic activities of CL8, CL8‐M6P3, and NanoCLY were determined by monitoring hemoglobin release from red blood cells. Fresh erythrocytes were obtained from the whole blood of mice by centrifugation (1000 × g for 30 min at 4 °C), and washed three times with cold 0.9% NaCl. The erythrocytes were dispensed into 96‐well plates, incubated with CL8, CL8‐M6P3 and NanoCLY at specified concentrations (0, 0.3, 1, 3, 10, and 30 × 10^−6 M) for 1 h at 37 °C, centrifuged at 1000 × g for 10 min, the supernatant samples were collected, and the absorbance at 570 nm was measured by microplate reader Cytation 5 (Biotek, USA). The negative control group was defined as the absorbance obtained in 1× PBS (A PBS), and 100% hemolysis in 0.1%Triton X‐100 (v/v) (A Triton). The hemolysis percentage was calculated as: (A peptide − A PBS)/(ATriton − A PBS) × 100%."}, "[2]": {"target": "IGFBP protein (N-terminal domain of CTGF) (Homo sapiens, UniProt P29279)", "assay": "MST binding to IGFBP domain of CTGF", "conditions": "Figure S6b", "experimental": "(§1) The affinity between various peptides (CL8, CC14, LT12, CC14S, CE8, FH14S, FH14, and CL8‐M6P3) and purified rhCTGF‐His tag protein (C15W, Novoprotein), IGFBP protein, and TSP proteins, was evaluated using microscale thermophoresis (NanoTemper, Germany). Additionally, the interaction between CL8‐M6P3 and the CCN1, CCN3, and CCN4 proteins was measured using the Dianthus system (NanoTemper, Germany). Prior to measurements, the purified proteins were labeled with fluorescent dye Monolith RED‐NHS (MO‐L011, NanoTemper). For the MST assay, 2 × 10^−6 M proteins (10 µL) were added with variable concentrations of the above peptides in PBST buffer (10 µL, PBS containing 0.05% Tween‐20). After a short incubation, the mixture was loaded into the Monolith NT.115 capillary (MO‐K022, NanoTemper) and analyzed using the Monolith NT.115 (NanoTemper, Germany)."}, "[3]": {"target": "T1, CCN1 (Homo sapiens, UniProt O00622)", "T1 sequence (O00622 25-381)": "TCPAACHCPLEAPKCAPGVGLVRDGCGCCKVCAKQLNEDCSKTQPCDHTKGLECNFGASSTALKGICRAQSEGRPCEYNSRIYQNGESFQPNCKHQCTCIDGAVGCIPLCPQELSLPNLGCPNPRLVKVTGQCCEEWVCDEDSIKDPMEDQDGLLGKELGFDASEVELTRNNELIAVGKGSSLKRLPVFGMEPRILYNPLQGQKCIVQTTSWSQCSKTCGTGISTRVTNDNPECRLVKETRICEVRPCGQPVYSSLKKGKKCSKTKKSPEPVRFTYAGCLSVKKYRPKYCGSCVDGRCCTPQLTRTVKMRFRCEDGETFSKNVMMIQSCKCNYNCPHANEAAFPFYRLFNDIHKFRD", "assay": "Binding to CCN1 (Dianthus system)", "conditions": "Figure S7a", "experimental": "as §1"}, "[4]": {"target": "T2, CTGF (Homo sapiens, UniProt P29279)", "T2 construct": "endogenous in cells; host or cells: BT549 and MDA-MB-231 (human TNBC cell lines)", "T2 sequence (P29279 27-349)": "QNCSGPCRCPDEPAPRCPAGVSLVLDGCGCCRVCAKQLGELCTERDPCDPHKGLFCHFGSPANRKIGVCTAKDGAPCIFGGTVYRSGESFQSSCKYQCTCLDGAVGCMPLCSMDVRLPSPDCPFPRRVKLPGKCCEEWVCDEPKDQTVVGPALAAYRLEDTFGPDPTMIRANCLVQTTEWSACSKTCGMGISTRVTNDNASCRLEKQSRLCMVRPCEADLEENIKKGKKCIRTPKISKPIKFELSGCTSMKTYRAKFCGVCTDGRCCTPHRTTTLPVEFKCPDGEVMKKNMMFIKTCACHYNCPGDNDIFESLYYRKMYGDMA", "assay": "ELISA of extracellular CTGF in culture media of TNBC cells", "format": "cell-based", "conditions": "in vitro, BT549 and MDA-MB-231 culture media, 12 h", "experimental": "BT549 and MDA‐MB‐231 cells were treated with various concentrations of CL8‐M6P3 or NanoCLY for 12 h. Extracellular CTGF protein level in conditioned media was quantified by a human CTGF ELISA kit following the manufacturer's instructions (ab261851, Abcam and CSB‐E07875h, Cusabio). Extracellular CCN1, CCN3, and CCN4 protein levels were quantified using respective ELISA kits (HY‐P7842, HY‐P701327, HY‐P78051, MCE) following the manufacturer's instructions (CSB‐EL015956HU, CSB‐EL026119HU, CSB‐E13884h, Cusabio). Additionally, BSP and β‐CTx levels in serum were quantified by ELISA kit following the manufacturer's instructions (BPE10823, BPE10438, lengton)."}, "[5]": {"target": "T3, TSP proteins (C-terminal domain of CTGF) (Homo sapiens, UniProt P29279)", "T3 sequence (P29279 198-243 limits assumed)": "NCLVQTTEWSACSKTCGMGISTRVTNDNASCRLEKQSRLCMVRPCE", "assay": "MST binding to TSP domain of CTGF", "conditions": "Figure S6c", "experimental": "as §1"}, "[6]": {"target": "T4, CCN4 (Homo sapiens, UniProt O95388)", "T4 sequence (O95388 23-367)": "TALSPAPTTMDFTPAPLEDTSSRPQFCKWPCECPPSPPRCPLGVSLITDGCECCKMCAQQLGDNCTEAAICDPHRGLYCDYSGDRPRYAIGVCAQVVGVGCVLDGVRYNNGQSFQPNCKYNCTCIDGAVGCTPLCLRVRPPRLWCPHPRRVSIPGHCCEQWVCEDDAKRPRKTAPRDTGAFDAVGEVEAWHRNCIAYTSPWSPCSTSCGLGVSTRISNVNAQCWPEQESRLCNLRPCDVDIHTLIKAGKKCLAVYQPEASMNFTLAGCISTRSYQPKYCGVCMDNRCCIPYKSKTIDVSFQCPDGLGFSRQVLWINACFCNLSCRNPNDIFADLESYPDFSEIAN", "assay": "Binding to CCN4 (Dianthus system)", "conditions": "Figure S7a", "experimental": "as §1"}, "[7]": {"target": "T5, CCN3 (Homo sapiens, UniProt P48745)", "T5 sequence (P48745 32-357)": "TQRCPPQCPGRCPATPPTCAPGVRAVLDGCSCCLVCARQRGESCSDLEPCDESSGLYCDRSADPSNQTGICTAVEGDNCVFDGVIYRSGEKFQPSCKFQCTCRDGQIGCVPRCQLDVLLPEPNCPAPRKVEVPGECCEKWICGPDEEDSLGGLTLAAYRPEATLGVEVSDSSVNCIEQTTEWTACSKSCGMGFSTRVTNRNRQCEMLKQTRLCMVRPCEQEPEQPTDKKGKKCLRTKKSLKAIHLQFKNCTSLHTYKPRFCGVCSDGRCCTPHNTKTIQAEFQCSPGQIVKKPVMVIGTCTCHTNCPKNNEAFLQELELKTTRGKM", "assay": "Binding to CCN3 (Dianthus system)", "conditions": "Figure S7a", "experimental": "as §1"}, "[8]": {"target": "T6, rhCTGF‐His tag protein (Homo sapiens, UniProt P29279)", "T6 construct": "purchased Novoprotein C15W", "T6 sequence (P29279 27-349)": "T2 sequence (P29279 27-349)", "assay": "MicroScale Thermophoresis (MST) binding to CTGF", "conditions": "Monolith NT.115, protein labelled with Monolith RED-NHS, 2 × 10^−6 M protein, PBST buffer (PBS, 0.05% Tween-20)", "experimental": "as §1"}, "[9]": {"target": "T7, recombinant human CTGF‐His tag (connective tissue growth factor) (human), P29279", "T7 chain": "T2 sequence (P29279 27-349)", "assay": "MST; proteins labeled with Monolith RED-NHS; 2 × 10^-6 M protein (10 µL) mixed with variable concentrations of peptide in PBST (10 µL, PBS with 0.05% Tween-20); Monolith NT.115"}, "[10]": {"target": "T8, recombinant human CTGF‐His tag (connective tissue growth factor) (human, UniProt P29279 27-349, labeled with fluorescent dye Monolith RED‐NHS)", "T8 construct": "connective tissue growth factor (CTGF/CCN2), human, recombinant; also called CCN2; rhCTGF‐His tag protein; source: bought: Novoprotein (C15W), purified", "T8 sequence (looked up)": "T2 sequence (P29279 27-349)", "assay": "MST; proteins labeled with Monolith RED-NHS; 2 × 10^-6 M protein (10 µL) mixed with variable concentrations of peptide in PBST (10 µL, PBS with 0.05% Tween-20); Monolith NT.115", "conditions": "both partners purified"}},
  "note": "Residues, ends and D or L forms follow the SMILES beside them. No end group written: not given here.",
  "data": [
    {"molecule": "H-CPSAAHYL-PEG3-[Pra(M6P)βAla]3-NH2 [CL8‐M6P3, peptide-based CTGF-LYTAC: CL8 conjugated to glycopeptide scaffold M6P3 by a PEG3 linker]", "values": [
      {"measurement": "hemolysis safety", "setting": "[1]", "result": "good hemolysis safety"},
      {"measurement": "interaction with IGFBP domain of CTGF", "setting": "[2]", "result": "interacts"},
      {"measurement": "binding interaction with CCN1", "setting": "[3]", "result": "no binding interactions"},
      {"measurement": "extracellular CTGF degraded", "setting": "[4]", "result": "≈ 50%"},
      {"measurement": "interaction with TSP domain of CTGF", "setting": "[5]", "result": "interacts"},
      {"measurement": "binding interaction with CCN4", "setting": "[6]", "result": "no binding interactions"},
      {"measurement": "binding interaction with CCN3", "setting": "[7]", "result": "no binding interactions"}
    ]},
    {"molecule": "CC(C)C[C@H](NC(=O)[C@H](Cc1ccc(O)cc1)NC(=O)[C@H](Cc1c[nH]cn1)NC(=O)[C@H](C)NC(=O)[C@H](C)NC(=O)[C@H](CO)NC(=O)[C@@H]1CCCN1C(=O)[C@@H](N)CS)C(N)=O", "note": "[CL8, reference compound] (H-CPSAAHYL-NH2)", "values": [
      {"measurement": "hemolysis safety", "setting": "[1]", "result": "good hemolysis safety"},
      {"measurement": "Kd", "setting": "[8]", "result": 1.23, "unit": "µM"}
    ]},
    {"molecule": "B1", "values": [
      {"measurement": "Kd", "setting": "[9]", "result": 1.23, "unit": "µM"}
    ]},
    {"molecule": "B2", "values": [
      {"measurement": "Kd", "setting": "[10]", "result": 13.4, "unit": "µM"}
    ]}
  ]
}
